Test results from US20240423981A1, “TREATMENT OF HCM WITH PYRIMIDINEDIONE COMPOUNDS” (MyoKardia, Inc., priority 2017, published 2024).

Experiments:
Type in all cases: in vivo, human
[1] = test system: obstructive HCM (oHCM) patients; assay: Parts A and B of the phase 2 trial (PIONEER), pooled findings
Text: (§1) This is a phase 2 open-label pilot study to evaluate the efficacy, PK, PD, safety, and tolerability of Compound 1 in subjects with symptomatic HCM and LVOT obstruction. Approximately 10 adult subjects with symptomatic HCM, a resting LVOT gradient ≥30 mm Hg, and post-exercise peak LVOT gradient ≥50 mm Hg will be enrolled. The study will have a 12-week treatment phase and a 4-week washout phase (FIG. 3).
(§2) This trial was similar to the trial described in Example 3, but will have several important differences. For example, subjects in the Phase 2-B trial will not be required to discontinue their β-blocker therapy, and the dose of Compound 1 will be reduced to 2 to 5 mg.
(§3) Compound 1 concentrations were measured in human plasma using high pressure liquid chromatography (HPLC) coupled with tandem mass spectrometry (MS/MS). This method was used for Compound 1 bioanalysis in all clinical trials to date, and all clinical data has been collected using plasma. A brief description of the method follows.
(§4) Liquid-liquid extraction and HPLC/MS/MS was used to determine the concentration of Compound 1 in human plasma. An aliquot of the extract was injected onto an HPLC instrument that is coupled with a triple quadrupole mass spectrometer (Sciex API5500). A Lux 3u Cellulose-4 HPLC column (150×2.0 mm) from […], was used to separate Compound 1, from interfering compounds that may be present in the sample extract. The internal standard was a multi-deuterated analog of Compound 1 to ensure that the internal standard used in the assay had similar chemical properties to the analyte but a different mass for selective detection. The peak area of the product ion of Compound 1 was measured against the peak area of the product ion of the internal standard for determination of concentration.

[2] = as above; details: human, plasma, oral; read-out: concentrations associated with excessive pharmacological effect
Text: as §1, §2, §3, §4

[3] = test system: subjects with symptomatic HCM and LVOT obstruction; assay: Phase 2 open-label pilot study Pioneer-HCM-B (Cohort B)
Protocol: as §2
The following results were obtained generally following the procedures described in Example 3 and Example 5.

[4] = 2 mg/day for 4 weeks, preliminary
[5] = Cohort B (2-5 mg daily doses), mean ± SD
[6] = Cohort B, baseline to Week 12, n 10

With `CC(C)n1c(=O)cc(N[C@@H](C)c2ccccc2)[nH]c1=O` [Compound 1, (S)-3-Isopropyl-6-((1-phenylethyl)amino) pyrimidine-2, 4(1H,3H)-dione] the “effects accompanying the gradient reduction” value ([1]; Parts A and B) was “improvement in symptoms, pVO2 during exercise, a decrease in NT pro-BNP and improvement in echocardiographic measures of diastolic function”, the diastolic function ([1]; Parts A and B, Tables 9 and 10) was “diastolic improvement” and the “tolerability of the therapeutic concentration range” value ([1]; associated with limited decrease in LVEF) was “well tolerate”. The “compliance of the left ventricle” value ([1]; increase in LVEDV with reduction in LV filling pressure (E/e′), emerging data, Cohorts A and B) was “improving compliance of the left ventricle”, the “LVEF maintained with clinical improvement in oHCM (symptom improvement and peak VO2)” value ([1]; plasma concentrations of 350 to 700 ng/mL) was at least 55% and the “LVOT gradient level reached” value ([1]; plasma concentrations of 350 to 700 ng/mL, generally) was under 30 mm Hg. For the same molecule, the concentration at 12 weeks [2] was over 1000 ng/mL, the “LV filling pressure and diastolic peak mitral annular velocity” value ([3]; 2 mg/day for 4 weeks, absence of a change in afterload) was “beneficial effects on LV filling pressure (↓E/e′ and NTpro-BNP) and in diastolic peak mitral annular velocity (e′)” and the “LV systolic function at rest and immediately post-exercise” value [3, 4] was “not affected”. For the same molecule, the “effect on LVOT rest and exercise gradients” value [3, 4] was “consistent effect on LVOT rest and exercise gradients”, the NYHA functional class ([3]; 12 weeks of Compound 1, 4 weeks of washout (FIG. 21)) was “improvement in NYHA functional class in individuals after 12 weeks and the reversal of improvement after 4 weeks of washout” and the “patients with >1.5 mL/kg/min improvement in pVO2” value ([3]; Cohort B) was “*5 of 10 patients had >1.5 mL/kg/mm improvement in pVO2”. For the same molecule, the “patients with improved NYHA Class” value ([3]; Cohort B) was 8 of 10 and **Improved NYHA Class in 9 out of 10 patients, the “Resting Gradient Week 4” value ([3]; Cohort B (2 mg/day), preliminary, mean ± SD, N 5, baseline 84 ± 76 (6)) was 59 ± 61 mm Hg and the “Septal e′ Week 4” value ([3]; Cohort B (2 mg/day), preliminary, mean ± SD, N 6, baseline 3.9 ± 1.1 (6)) was 4.5 ± 1.4. The “Mean e′ Week 4” value ([3]; Cohort B (2 mg/day), preliminary, mean ± SD, N 6, baseline 4.7 ± 1.0 (6)) was 5.7 ± 1.3, the “Lateral e′ Week 4” value ([3]; Cohort B (2 mg/day), preliminary, mean ± SD, N 6, baseline 5.4 ± 1.0 (6)) was 7.0 ± 1.2 and the “E/e′ Week 4” value ([3]; Cohort B (2 mg/day), preliminary, mean ± SD, N 6, baseline 14.0 ± 3.4 (6)) was 10.7 ± 3.5. The “Post-exercise Gradient Week 4” value ([3]; Cohort B (2 mg/day), preliminary, mean ± SD, N 6, baseline 70 ± 45 (6)) was 93 ± 56 mm Hg, the “Resting LVEF Week 4” value ([3]; Cohort B (2 mg/day), preliminary, mean ± SD, N 6, baseline 71 ± 4 (6)) was 73 ± 6% and the “Stroke Volume Week 4” value ([3]; Cohort B (2 mg/day), preliminary, mean ± SD, N 6, baseline 73.3 ± 6.5 (6)) was 77.8 ± 14.3 mL. The “Post-exercise LVEF Week 4” value ([3]; Cohort B (2 mg/day), preliminary, mean ± SD, N 6, baseline 78 ± 9 (5)) was 76 ± 3%, the “NT-pro BNP Week 4” value ([3]; Cohort B (2 mg/day), preliminary, mean ± SD, N 7, baseline 2162 ± 3601 (8)) was 1258 ± 1789 pg/mL and the “improvement in peak VO2 in 4 subjects” value ([3]; Cohort B (2-5 mg daily doses)) was at least 2.9 mL/kg/min. The “Dyspnea numerical rating (signed change)” value [3, 5] was −3.0 ± 2.8, the “NYHA Class (signed change)” value [3, 5] was −1.0 ± 0.5 and the “Peak VO2 (signed change)” value [3, 5] was “+1.67 ± 2.3 mL/kg/min”. The “Post-exercise peak LVOT gradient (signed change)” value [3, 5] was −25.0 ± 28.7 mmHg, the “Resting LVEF (signed change)” value [3, 5] was −5.5 ± 6.0% and the “Resting LVOT gradient (signed change)” value [3, 5] was −48.5 ± 48.0 mmHg. The “NT-proBNP Delta” value ([3]; Cohort B, baseline to Week 12, n 9) was −1195 ± 2770, the “Dyspnea score Delta” value [3, 6] was −3.0 ± 2.8 and the “E/e′ Delta” value [3, 6] was −1.3 ± 4.6. For the same molecule, the “LA Vol (index) Delta” value [3, 6] was −6 ± 12 mL/m^2, the “LVEDV Delta” value [3, 6] was 6 ± 18 and the “Lateral e′ Delta” value [3, 6] was 0.3 ± 2.2 cm/s. The “Dyspnea score Week 12” value ([3]; Cohort B, baseline 4.0 ± 2.6, n 10) was 1.0 ± 0.7, the “Lateral e′ Week 12” value ([3]; Cohort B, baseline 5.9 ± 1.0, n 10) was 6.1 ± 2.1 cm/s and the “E/e′ Week 12” value ([3]; Cohort B, baseline 13.9 ± 3.5, n 10) was 12.6 ± 4.1. The “LA Vol (index) Week 12” value ([3]; Cohort B, baseline 41 ± 20, n 10) was 35 ± 12 mL/m^2, the “LVEDV Week 12” value ([3]; Cohort B, baseline 95 ± 15, n 10) was 101 ± 25 and the “NT-proBNP Week 12” value ([3]; Cohort B, baseline 1834 ± 3209, n 9) was 826 ± 1063. The “peak VO2” value ([3]; by week 12 (FIG. 23)) was “improvement in peak VO2 by week 12” and the dyspnea ([3]; throughout the trial, improvement reversed after 4 weeks of washout (FIG. 22)) was “rapid improvement in peak in dyspnea”.
